Usually pKd stands for the negative decadic logarithm of the Kd, by convention in mol/L.

Kd data for four compounds are collected here from ChEMBL document CHEMBL1158514, “Molecular design of small organic molecules based on structural information for a conformationally constrained peptide that binds to G-CSF receptor” (Bioorg Med Chem Lett, 2010).

This assay addresses T1, Granulocyte colony-stimulating factor receptor (Homo sapiens, UniProt Q99062).
T1 sequence (Q99062 whole entry): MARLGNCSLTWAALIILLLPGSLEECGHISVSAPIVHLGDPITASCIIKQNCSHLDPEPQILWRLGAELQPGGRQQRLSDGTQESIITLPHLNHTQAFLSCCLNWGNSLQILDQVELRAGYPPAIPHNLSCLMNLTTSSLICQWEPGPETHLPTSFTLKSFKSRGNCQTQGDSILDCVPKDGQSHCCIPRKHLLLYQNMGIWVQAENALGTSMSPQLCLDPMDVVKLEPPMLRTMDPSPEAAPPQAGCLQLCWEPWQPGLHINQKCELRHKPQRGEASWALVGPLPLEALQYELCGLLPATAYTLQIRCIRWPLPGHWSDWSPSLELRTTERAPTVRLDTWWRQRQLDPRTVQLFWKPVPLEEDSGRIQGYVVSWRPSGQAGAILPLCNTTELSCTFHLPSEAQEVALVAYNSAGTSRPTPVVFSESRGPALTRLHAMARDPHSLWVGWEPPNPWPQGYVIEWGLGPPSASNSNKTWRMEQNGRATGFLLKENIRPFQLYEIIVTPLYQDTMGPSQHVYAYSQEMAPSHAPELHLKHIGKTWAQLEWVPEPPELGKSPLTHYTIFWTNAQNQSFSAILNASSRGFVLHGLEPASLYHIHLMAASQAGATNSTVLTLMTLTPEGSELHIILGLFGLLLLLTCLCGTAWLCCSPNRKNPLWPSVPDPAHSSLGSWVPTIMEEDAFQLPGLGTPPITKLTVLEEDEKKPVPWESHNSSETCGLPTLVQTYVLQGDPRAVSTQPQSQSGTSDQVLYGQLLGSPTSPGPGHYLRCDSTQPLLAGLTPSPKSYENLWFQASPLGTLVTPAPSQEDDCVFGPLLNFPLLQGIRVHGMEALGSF
Put plainly: Binding affinity to granulocyte colony stimulating factor receptor by SPR biosensor technique. To be noted: for pKd: read-out: Kd.

pKd: −log10 of the molar value.

Turning to `CC(C)CCOc1cc(OCCCN)cc(-c2ccc(CCC(N)=O)c(CCC(=O)O)c2)c1`, the Kd entry is recorded as “Not Active”.
Turning to `CC(C)CCOc1cc(CN(CCC(=O)O)c2cccc(CCC(N)=O)c2)cc(OCCCN)c1`, the pKd is 4.33.
Turning to `CC(C)CCOc1cc(OCCCN)cc(-c2ccc(CCC(=O)O)c(CCC(N)=O)c2)c1`, the pKd is 4.70.
Take `CC(C)CCOc1cc(CN(CCC(N)=O)c2cccc(CCC(=O)O)c2)cc(OCCCN)c1`: the Kd result is listed as “Not Active”.
